In brackets after ≈: the same amount, converted by molar mass.
Columns and labels:
[1] = test system: Human immunodeficiency virus; assay: Antiviral activity against HIV at 0.64 ug/well; assay type: functional
P388 = assay: Antitumor activity against mouse P388 cells; assay type: functional, cell-based
[2] = Antitumor activity against mouse SCHABEL cells; assay type: functional, cell-based
A549 = assay: Antitumor activity against human A549 cells; assay type: functional, cell-based
HT-29 = assay: Antitumor activity against human HT-29 cells; assay type: functional, cell-based
SK-MEL-28 = assay: Antitumor activity against human SK-MEL-28 cells; assay type: functional, cell-based

- IC50 (P388): 5 µg/mL (≈ 13.1 µM)
- IC50 [2]: 5 µg/mL (≈ 13.1 µM)
- IC50 (A549): 10 µg/mL (≈ 26.3 µM)
- IC50 (HT-29): 10 µg/mL (≈ 26.3 µM)
- IC50 (SK-MEL-28): 10 µg/mL (≈ 26.3 µM)
Structure (SMILES): C=C(CC[C@@H](C)[C@H]1CC[C@H]2c3ccc4c(c3CC[C@]12C)CC[C@H](O)C4)C(C)C [PHYCOMYSTEROL A]
- Activity [1]: 64%

From ChEMBL document CHEMBL1151322, “Phycomysterols and other sterols from the fungus Phycomyces blakesleeanus” (J Nat Prod, 1998)
